In patent publication US20240383870A1, “HETEROCYCLIC ALDEHYDE TRAPPING COMPOUNDS AND USES THEREOF” (Aldeyra Therapeutics, Inc., priority 2021, published 2024):

Experiments:
Assay type in all cases: in vivo
[1] = system: eotaxin; assay: Acute LPS-induced sepsis in C57BL/6 mice: eotaxin cytokine detection assay; conditions: 200 mpk PO; LPS-challenged mice, plasma at 6.5 h; unpaired t-test vs vehicle
[2] = system: IL-6; assay: Acute LPS-induced sepsis in C57BL/6 mice: IL-6 cytokine detection assay; conditions: 200 mpk PO; LPS-challenged mice, plasma at 6.5 h; unpaired t-test vs vehicle
Source text: FIG. 11 is a graph showing the results of an IL-6 cytokine detection assay in samples collected from mouse subjects after administration of compounds of the present disclosure.
(§1) The primary objective of this study was to collect plasma samples of lipopolysaccharide (LPS) challenged C57BL/6 mice after dose of test compounds to provide a cytokine profile as impacted by prophylactic treatments. This study models acute sepsis, which is a systemic inflammatory syndrome initiated by Gram-negative and Gram-positive bacteria and fungi which infect the lungs, abdomen, bloodstream, and renal or genitourinary tracts. Sepsis patients ultimately die of multiorgan failure which is caused by extensive tissue hypo-oxygenation due to ongoing microvascular leakage, disseminated intravascular coagulation, compromised energy production, and metabolic alterations. Sepsis is characterized by an early systemic inflammatory response phase featuring symptoms, such as tachycardia, fever, hyperventilation, and activation of the complement and coagulation cascades. However, it is now appreciated that a compensatory anti-inflammatory response phase follows, characterized by neuroendocrine-mediated immunosuppression. Since these processes are the result of interaction between cells of inflammation and organs, investigation of the treatment of this syndrome requires the use of intact animal models. The use of ten mice per group allows useful statistical modelling of the results.
(§2) For the data shown in Table 2A, 103 mice (female, 18-22 gram, C57BL/6) were purchased from ENVIGO. The mice were housed in 20 cages of 5 mice per cage with 1 cage of 3 mice as extra. The cages had filter tops and autoclaved bedding, and the animals were placed in quarantine with daily inspection. The treatment groups are detailed in Table 2A below. 10 mice were included in each group. The mice were dosed by oral gavage (PO) at 10 ml/kg as per the table below. MC=methyl cellulose.
(§3) For the data shown in Table 2B, 185 mice (female, 18-22 gram, C57BL/6) were purchased from ENVIGO. The mice were housed in 37 cages of 5 mice per cage. The cages had filter tops and autoclaved bedding, and the animals were placed in quarantine with daily inspection. The treatment groups are detailed in Table 2B below. 10 mice were included in each group. The mice were dosed by oral gavage (P0) at 10 ml/kg as per the table below. MC=methyl cellulose.
(§4) At T=0 h, the mice were dosed with one of the test compounds as described in the above table.
(§5) At T=0.5 h, the mice were injected IP with 1.5 mg/kg […] (Sigma).
(§6) At T=6.5 h, all mice were anesthetized and exsanguinated into pre-chilled EDTA-treated tubes. […]
(§7) A 32-plex cytokine panel was obtained from Eve Technologies. Each cytokine was assessed based against a 7 point curve range in duplicate. […]

[3] = system: IL-7; assay: Acute LPS-induced sepsis in C57BL/6 mice: IL-7 cytokine detection assay; conditions: 200 mpk PO; LPS-challenged mice, plasma at 6.5 h; unpaired t-test vs vehicle
[4] = system: IL-13; assay: Acute LPS-induced sepsis in C57BL/6 mice: IL-13 cytokine detection assay; conditions: 200 mpk PO; LPS-challenged mice, plasma at 6.5 h; unpaired t-test vs vehicle
Source text: FIG. 17 is a graph showing the results of an IL-13 cytokine detection assay in samples collected from mouse subjects after administration of compounds of the present disclosure.
as §1, §2, §3, §4, §5
(§8) At T=6.5 h, all mice were anesthetized and exsanguinated into pre-chilled EDTA-treated tubes. The blood was processed to plasma which was stored in labeled 0.5 polypropylene snap-cap tubes (0.5 mL Eppendorf Safe-Lock Tubes (Fisher Scientific) at −80° C.
(§9) Preparation of vehicle: 1.0 gram of methyl cellulose (Sigma) was dissolved in 200 mL of water (USP purified) to make a solution of 0.5% methyl cellulose in water. Preparation of LPS solution: 6 mg of LPS (from Escherichia Coli 055:B5, Cat #L2880, Sigma Lot #057m4013) was dissolved in 20 ml of saline to give a LPS solution of 0.3 mg/ml. All mice were injected with 5 ml/kg (1.5 mg/kg) at the scheduled time by intraperitoneal injection.
A 32-plex cytokine panel was obtained from Eve Technologies. Each cytokine was assessed based against a 7 point curve range in duplicate. The average of the two replicate analyses was used for statistics. […]

[5] = system: IL-15; assay: Acute LPS-induced sepsis in C57BL/6 mice: IL-15 cytokine detection assay; conditions: 200 mpk PO; LPS-challenged mice, plasma at 6.5 h; unpaired t-test vs vehicle
[6] = system: IL-17; assay: Acute LPS-induced sepsis in C57BL/6 mice: IL-17 cytokine detection assay; conditions: 200 mpk PO; LPS-challenged mice, plasma at 6.5 h; unpaired t-test vs vehicle
Source text: FIG. 19 is a graph showing the results of an IL-17 cytokine detection assay in samples collected from mouse subjects after administration of compounds of the present disclosure.
as §1
(§10) For the data shown in Table 2A, 103 mice (female, 18-22 gram, C57BL/6) were purchased from ENVIGO. The mice were housed in 20 cages of 5 mice per cage with 1 cage of 3 mice as extra. The cages had filter tops and autoclaved bedding, and the animals were placed in quarantine with daily inspection. The treatment groups are detailed in Table 2A below. 10 mice were included in each group. […] MC=methyl cellulose.
as §3, §4, §5, §6, §7

[7] = system: KC; assay: Acute LPS-induced sepsis in C57BL/6 mice: KC cytokine detection assay; conditions: 200 mpk PO; LPS-challenged mice, plasma at 6.5 h; unpaired t-test vs vehicle
Source text: FIG. 20 is a graph showing the results of a KC cytokine detection assay in samples collected from mouse subjects after administration of compounds of the present disclosure.
as §1, §2, §3, §4, §5, §8, §9
(§11) A 32-plex cytokine panel was obtained from Eve Technologies. Each cytokine was assessed based against a 7 point curve range in duplicate. The average of the two replicate analyses was used for statistics. Unpaired t-tests were performed using Excel™ contrasting vehicle against each treatment group. One star indicates P<0.05. Two stars indicates P<0.01. Three stars indicates P<0.001. Four stars indicates P<0.0001. Most, but not all, statistically significant results are indicated with star(s).

[8] = system: leukemia inhibitory factor (LIF); assay: Acute LPS-induced sepsis in C57BL/6 mice: leukemia inhibitory factor (LIF) cytokine detection assay; conditions: 200 mpk PO; LPS-challenged mice, plasma at 6.5 h; unpaired t-test vs vehicle
Source text: FIG. 21 is a graph showing the results of a leukemia inhibitory factor (LIF) cytokine detection assay in samples collected from mouse subjects after administration of compounds of the present disclosure. LIF is an interleukin 6 class cytokine that affects cell growth by inhibiting differentiation.
as §1, §2, §3, §4, §5, §8, §9, §7

[9] = system: MCP-1(CCL2); assay: Acute LPS-induced sepsis in C57BL/6 mice: MCP-1(CCL2) cytokine detection assay; conditions: 200 mpk PO; LPS-challenged mice, plasma at 6.5 h; unpaired t-test vs vehicle
[10] = system: MIP2(CXCL2); assay: Acute LPS-induced sepsis in C57BL/6 mice: MIP2(CXCL2) cytokine detection assay; conditions: 200 mpk PO; LPS-challenged mice, plasma at 6.5 h; unpaired t-test vs vehicle
Source text: FIG. 27 is a graph showing the results of a MIP2(CXCL2) cytokine detection assay in samples collected from mouse subjects after administration of compounds of the present disclosure.
as §1, §10, §3, §4, §5, §6, §7

[11] = system: TNFα; assay: Acute LPS-induced sepsis in C57BL/6 mice: TNFα cytokine detection assay; conditions: 200 mpk PO; LPS-challenged mice, plasma at 6.5 h; unpaired t-test vs vehicle
Source text: FIG. 29 is a graph showing the results of a TNFα cytokine detection assay in samples collected from mouse subjects after administration of compounds of the present disclosure.
as §1
For the data shown in Table 2A, 103 mice (female, 18-22 gram, C57BL/6) were purchased from ENVIGO. The mice were housed in 20 cages of 5 mice per cage with 1 cage of 3 mice as extra. The cages had filter tops and autoclaved bedding, and the animals were placed in quarantine with daily inspection. The treatment groups are detailed in Table 2A below. 10 mice were included in each group. The mice were dosed by oral gavage (PO) at 10 ml/kg as per the table below. MC=methyl cellulose. […]
as §7

[12] = system: M-CSF (CSF1); assay: Acute LPS-induced sepsis in C57BL/6 mice: M-CSF (CSF1) cytokine detection assay; conditions: LPS-challenged mice, plasma at 6.5 h, unpaired t-test vs vehicle
Source text: FIG. 24 is a graph showing the results of an M-CSF (CSF1) cytokine detection assay in samples collected from mouse subjects after administration of compounds of the present disclosure. M-CSF causes hematopoietic stem cells to differentiate into macrophages.
as §1, §2, §3, §4, §5, §8, §9, §11

[13] = system: IL-3; assay: Acute LPS-induced sepsis in C57BL/6 mice: IL-3 cytokine detection assay; conditions: 200 mpk PO; LPS-challenged mice, plasma at 6.5 h; unpaired t-test vs vehicle
[14] = system: IL-10; assay: Acute LPS-induced sepsis in C57BL/6 mice: IL-10 cytokine detection assay; conditions: 200 mpk PO; LPS-challenged mice, plasma at 6.5 h; unpaired t-test vs vehicle

SMILES | IL-6: significant cytokine change vs. vehicle [2] | KC: significant cytokine change vs. vehicle [7] | MCP-1: significant cytokine change vs. vehicle [9] | TNFa: significant cytokine change vs. vehicle [11] | M-CSF: significant cytokine change vs. vehicle ([12]; 200 mpk PO) | also measured
CC(O)(c1sc2cccc(Br)c2c1N)C(F)(F)F (stereo not shown) [Compound I-2, 2-(3-amino-4-bromobenzo[b]thiophen-2-yl)-1,1,1-trifluoropropan-2-ol] | **** (Four stars indicates P<0.0001) | *** (Three stars indicates P<0.001) | *** (Three stars indicates P<0.001) | **** (Four stars indicates P<0.0001) | – | Eotaxin: significant cytokine change vs. vehicle [1]: ** (Two stars indicates P<0.01); IL-7: significant cytokine change vs. vehicle [3]: ** (Two stars indicates P<0.01); IL-13: significant cytokine change vs. vehicle [4]: **** (Four stars indicates P<0.0001); IL-15: significant cytokine change vs. vehicle [5]: ** (Two stars indicates P<0.01); IL-17: significant cytokine change vs. vehicle [6]: *** (Three stars indicates P<0.001); LIF: significant cytokine change vs. vehicle [8]: ** (Two stars indicates P<0.01); MIP-2: significant cytokine change vs. vehicle [10]: *** (Three stars indicates P<0.001)
COc1ccc2c(c1)NC(=O)[C@@H](CO)N2 [Compound I-7, (R)-3-(Hydroxymethyl)-7-methoxy-3,4-dihydroquinoxalin-2(1H)-one] | * (One star indicates P<0.05) | * (One star indicates P<0.05) | * (One star indicates P<0.05) | * (One star indicates P<0.05) | *** (Three stars indicates P<0.001) | –
CC(O)(c1sc2ccc(C(F)(F)F)cc2c1N)C(F)(F)F (stereo not shown) [Compound I-16, 2-(3-Amino-5-(trifluoromethyl)benzo[b]thiophen-2-yl)-1,1,1-trifluoropropan-2-ol] | – | – | * (One star indicates P<0.05) | – | **** (Four stars indicates P<0.0001) | IL-3: significant cytokine change vs. vehicle [13]: * (One star indicates P<0.05); IL-10: significant cytokine change vs. vehicle [14]: ** (Two stars indicates P<0.01)
CC(C)(O)c1cc2occc2cc1N [Compound I-22, 2-(5-Aminobenzofuran-6-yl) propan-2-ol] | – | – | – | – | – | M-CSF: significant cytokine change vs. vehicle ([12]; 100 mpk PO): ** (Two stars indicates P<0.01)
CC(C)(O)c1ncc(C(F)(F)F)cc1N [Compound I-24, 2-(3-Amino-5-(trifluoromethyl)pyridin-2-yl) propan-2-ol] | – | – | – | – | * (One star indicates P<0.05) | –
